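Briefly, cells in 96-well plates were exposed to five compound concentrations for 48 h, and endpoints were estimated by linear interpolation. TGI denotes the concentration required for complete inhibition of growth.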
Experiments:
Assay in all cases: NCI-60 cell line screen, 48 h
[1] = tested on: OVCAR-4 ovarian
[2] = tested on: EKVX NSCLC
[3] = tested on: NCI-H226 lung
[4] = tested on: SNB-19 CNS
[5] = tested on: NCI-H23 lung
[6] = tested on: OVCAR-3 ovarian
[7] = tested on: K-562 leukemia
[8] = tested on: 786-0 renal
[9] = tested on: UACC-257 melanoma
[10] = tested on: CAKI-1 renal
[11] = tested on: SK-MEL-5 melanoma
[12] = tested on: MOLT-4 leukemia
[13] = tested on: RXF 393 renal
[14] = tested on: T-47D breast
[15] = tested on: HT29 colon
[16] = tested on: NCI/ADR-RES ovarian

| Structure (SMILES) | TGI [1] | TGI [2] | TGI [3] | TGI [4] | TGI [5] | TGI [6] | TGI [7] | TGI [8] | TGI [9] | TGI [10] | TGI [11] | TGI [12] | TGI [13] | TGI [14] | TGI [15] | TGI [16] |
| --- | --- | --- | --- | --- | --- | --- | --- | --- | --- | --- | --- | --- | --- | --- | --- | --- |
| CCn1c2ccccc2c2c(-c3ccccc3)cc3c(c21)C(=O)N(c1ccccc1)C3=O | > 100 µM | > 100 µM | > 100 µM | > 100 µM | > 100 µM | > 100 µM | > 100 µM | > 100 µM | > 100 µM | > 100 µM | > 100 µM | > 100 µM |  |  |  |  |
| CN(CCc1ccccn1)C(=S)N/N=C(\c1ccccc1)c1ccccn1 | 2.23 µM | 2 µM |  | 9.07 µM | 4.26 µM | 10.4 µM | > 100 µM | 2.68 µM | 1.94 µM | 5.3 µM | 6.65 µM | 7.26 µM | 2.83 µM | 4.82 µM | 2.77 µM |  |
| CN(CCNC(=O)c1c[nH]c2c1Cc1ccccc1-2)CCNC(=O)c1c[nH]c2c1Cc1ccccc1-2 | > 100 µM | > 100 µM | 71.9 µM | > 100 µM | > 100 µM | 73.7 µM | > 100 µM | 44.8 µM | > 100 µM | > 100 µM | 71.4 µM | 63.7 µM | > 100 µM |  | > 100 µM | > 100 µM |
| C=C1C(=O)O[C@H]2C[C@@H]1[C@@H](O)[C@H](O)[C@@H](C)CCCC(C)=CCC[C@@]2(C)O | 83.9 µM | > 100 µM |  | > 100 µM | 42.7 µM | 28.5 µM | > 100 µM | 52 µM | 36.4 µM | 22.3 µM | 48.4 µM | 54.6 µM | 74.1 µM | 57.1 µM |  |  |
| NC(=O)CC(N=Cc1nc(-c2ccccc2)oc1O)C(=O)O (stereo not drawn) | > 100 µM | > 100 µM | > 100 µM | > 100 µM | > 100 µM | > 100 µM | > 100 µM | > 100 µM | > 100 µM | > 100 µM | > 100 µM |  | > 100 µM |  | > 100 µM |  |
| O=C(O)c1nc2ccc(C(F)(F)F)cc2nc1Nc1ccc(F)cc1 | > 100 µM | 73.9 µM | 57 µM |  | 37.6 µM | 60.8 µM | 43.4 µM | 54.5 µM | 78.1 µM | 78 µM | > 100 µM | 28.9 µM | 31.5 µM |  | > 100 µM | 84.7 µM |
| COc1cc(C(C)O)c[n+](CCC2CNc3ccccc32)c1 (stereo not drawn) | > 100 µM | > 100 µM | > 100 µM | > 100 µM | > 100 µM | > 100 µM | > 100 µM | > 100 µM | > 100 µM | > 100 µM | > 100 µM | > 100 µM |  |  | > 100 µM |  |
| Cc1nc2cc(Nc3ccccc3C(=O)O)ccc2s1 | > 100 µM |  |  | > 100 µM | > 100 µM | > 100 µM | > 100 µM | > 100 µM |  | > 100 µM | > 100 µM | > 100 µM | > 100 µM |  | > 100 µM |  |
| Clc1ccc(C[P+](c2ccccc2)(c2ccccc2)c2ccccc2)cc1Cl | 19.5 µM |  | 13.1 µM | 10.6 µM | 10.4 µM | 6.74 µM | > 100 µM | 17 µM | 8.32 µM | 11 µM | 2.78 µM |  |  |  | 11.9 µM |  |
| O=C1CN(c2cccc(Cl)c2)C(=O)CN1NCNN1CC(=O)N(c2cccc(Cl)c2)CC1=O | > 100 µM | > 100 µM |  | > 100 µM | > 100 µM | > 100 µM |  | > 100 µM | > 100 µM | > 100 µM | > 100 µM | > 100 µM | > 100 µM |  | > 100 µM |  |
| O=c1[nH]c(=O)n(COCc2ccccc2)cc1Nc1ccc(Br)cc1 | > 100 µM | > 100 µM | > 100 µM | > 100 µM | > 100 µM | > 100 µM | > 100 µM | > 100 µM | > 100 µM | > 100 µM | > 100 µM | > 100 µM | > 100 µM |  | > 100 µM | > 100 µM |
| [N-]=[N+]=CC(=O)OCCCCl | > 100 µM | > 100 µM | > 100 µM | > 100 µM | > 100 µM | > 100 µM |  | > 100 µM | > 100 µM | > 100 µM | > 100 µM | > 100 µM | > 100 µM |  | > 100 µM |  |
| CC1(C)OC2OC(C(COS(=O)(=O)C(F)(F)F)N=[N+]=[N-])C(OC(=O)c3ccccc3)C2O1 (stereo not drawn) | > 100 µM | > 100 µM | > 100 µM | > 100 µM | > 100 µM | > 100 µM | > 100 µM | > 100 µM | > 100 µM | > 100 µM | > 100 µM | > 100 µM | > 100 µM |  | > 100 µM | > 100 µM |
| NC(=S)N1N=C2c3ccccc3CC[C@H]2[C@@H]1c1ccc(Cl)cc1 | > 100 µM | > 100 µM | 51.5 µM | > 100 µM | 97.7 µM | > 100 µM | 82.5 µM | > 100 µM | 95 µM |  |  | 89.8 µM | 84.3 µM |  | > 100 µM |  |

— PubChem BioAssay (NCI)
